Experimental data reported in PMC7346717 (Nature structural & molecular biology, 2018).

Columns and labels:
[1] = biological target: T1, ΔN-drSLC38A9 (ΔN-SLC38A9) (Danio rerio, UniProt Q08BA4, N227Q/N235Q/N252Q/N263Q); test: proteoliposome radioligand uptake; format: biochemical; settings: 0.5 μM [3H]L-arginine, labelled compound; NaCl, MES pH 5.0
T1 sequence (Q08BA4 71-549 N227Q/N235Q/N252Q/N263Q): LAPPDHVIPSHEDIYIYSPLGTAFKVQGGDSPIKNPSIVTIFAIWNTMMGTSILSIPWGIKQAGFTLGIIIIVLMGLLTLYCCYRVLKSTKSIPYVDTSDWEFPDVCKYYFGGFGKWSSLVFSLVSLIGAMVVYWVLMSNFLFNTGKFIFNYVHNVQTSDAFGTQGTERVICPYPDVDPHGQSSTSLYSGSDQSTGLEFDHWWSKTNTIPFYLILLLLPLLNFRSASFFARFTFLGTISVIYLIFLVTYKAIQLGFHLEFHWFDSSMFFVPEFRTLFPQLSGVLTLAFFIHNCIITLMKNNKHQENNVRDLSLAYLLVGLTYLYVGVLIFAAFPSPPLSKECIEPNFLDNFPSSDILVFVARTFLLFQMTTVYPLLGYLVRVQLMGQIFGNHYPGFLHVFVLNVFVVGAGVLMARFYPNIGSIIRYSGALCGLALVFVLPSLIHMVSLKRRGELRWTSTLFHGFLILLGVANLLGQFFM

[2] = biological target: T2, drSLC38A9 (full-length, wild-type) (Danio rerio, UniProt Q08BA4); test: proteoliposome radioligand uptake; format: biochemical; settings: 0.5 μM [3H]L-arginine, labelled compound; Na+ (not K+ or NMG), pH 5.0
T2 sequence (Q08BA4 1-549): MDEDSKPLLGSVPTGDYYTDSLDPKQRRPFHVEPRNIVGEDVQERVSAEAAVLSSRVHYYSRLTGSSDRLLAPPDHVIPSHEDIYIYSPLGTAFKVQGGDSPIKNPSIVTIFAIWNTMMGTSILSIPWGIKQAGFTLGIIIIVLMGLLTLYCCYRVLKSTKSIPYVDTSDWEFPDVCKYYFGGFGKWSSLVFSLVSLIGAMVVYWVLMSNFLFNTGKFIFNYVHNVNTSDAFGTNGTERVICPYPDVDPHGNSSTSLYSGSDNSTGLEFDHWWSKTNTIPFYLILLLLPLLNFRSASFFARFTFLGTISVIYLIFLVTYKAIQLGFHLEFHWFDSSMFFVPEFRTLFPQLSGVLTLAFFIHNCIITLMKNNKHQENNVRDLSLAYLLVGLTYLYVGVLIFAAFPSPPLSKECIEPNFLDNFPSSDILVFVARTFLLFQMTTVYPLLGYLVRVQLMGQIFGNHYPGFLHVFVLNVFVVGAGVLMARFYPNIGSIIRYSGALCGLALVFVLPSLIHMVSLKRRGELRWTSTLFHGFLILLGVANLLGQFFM

SMILES: N=C(N)NCCC[C@H](N)C(=O)O [arginine]
- proteoliposome radioligand uptake [1]: the truncated drSLC38A9 protein is active and able to bind arginine similarly to the wild-type
- proteoliposome radioligand uptake [2]: robust uptake was observed in the presence of sodium
